Data reported in patent publication EP0358766A1, “METHOD OF STERILIZING PLANT ANTHERS” (VSESOJUZNY NAUCHNO-ISSLEDOVATELSKY INST. SELSKOKHOZYAISTV. …, priority 1988, dated 1989).

Legend:
[1] = system: Winterweizens Sorte Mironowskaya 808; assay: Field test of gametocidal activity (anther sterilisation), winter wheat Mironowskaya 808; format: in vivo, Weizen; settings: read-out: Prozentsatz der Sterilität %
[2] = system: diploidem Roggen Voskhod 2; assay: Field test of gametocidal activity, diploid rye Voskhod 2; format: in vivo; settings: period V, 1% aqueous emulsion, 10 kg/ha in 1000 l water
Excerpt: Die gametozide Aktivität der erfindungsgemäßen Sterilisationsmittel war in Feldversuchen in verschiedenen bodenklimatischen Zonen mit Teilstücken von 10 m^2 Größe in dreibis viermaliger Wiederholung festgestellt. Jedes Sterilisationsmittel wurde mindenstens 5 Jahre lang geprüft.
Die Entwicklung der Perioden der Organogenese wird zytologisch überwacht. Die Behandlung von Pflanzen mit dem Sterilisationsmittel erfolgt am Anfang der fünften Periode der Organogenese nach Kupermann.
Mit dem Ährenschieben verwirklicht man die Isolierung von Hauptähren und anderen Stockwerken in Pergametbeuteln. Bei Weizen und Tritikale werden Einzelisolatoren benutzt. Bei Roggen schließt man je 1 Ähre von […] verschiedenen nebeneinander befindlichen Pflanzen unter einen gemeinsamen Isolator ein. Bei Hirse wird jede Rispe getrennt isoliert. Der Sterilitätsprozentsatz (X) für Weizen, Roggen, Tritikale und Hirse wird nach der Formel [formula] ermittelt.
Die Kornzahl in nicht isolierten Ähren von Kontrollpflanzen wird bedingt für 100 % Ansetzen bei freier Bestäubung angenommen.
Um zuverlässige Angaben zu erhalten, verwendet man 20 bis 25 Isolatoren je Wiederholung für Weizen und Tritikale, 10 bis 15 Isolatoren jeder Wiederholung für Roggen und Hirse.
Pflanzen von diploidem Roggen Voskhod 2 werden in der V. Periode der Organogenese mit einer 1%igen wäßrigen Emulsion von 1,1,3-Tribrompropan, 1,1,3-Tribrom-4-chlorbutan bzw. 1,1,2,3-Tetrabrompropan behandelt. Die Emulsion enthält 0,5 Masse% C12-C14-Kalziumalkylbenzolsulfonat und 0,01 Masse% Dimethylformamid. Der Verbrauch an Präparat beträgt 10 kg/ha bei 1000 1 Wasserdurchsatz. Die Prüfergebnisse sind in der Tabelle 14 angegeben. Die gleichen Ergebnisse sind bei der Behandlung von diploidem Roggen Voskhod 2 in der VI. Periode der Organogenese erhalten..

[3] = workplace air limit; cited from earlier work

| SMILES | pest or weed control at 1 %, 20000 g/ha [1] [%] | Kornzahl der Ähre bei freier Bestäubung [2] | Kornzahl der Ähre unter Isolator [2] | Prozentsatz der Sterilität [2] | Prozentsatz des Ansetzens von Samen bei freier Bestäubung ([2]; control = 100) | maximale Arbeitsplatzkonzentration (MAK-Wert) [3] [mg/m^3] |
| --- | --- | --- | --- | --- | --- | --- |
| BrCCC(Br)Br [Beispiel 1, 1,1,3-Tribrompropan] | 98 | 48,6 | 0,9 | 98,2% | 89,0% |  |
| CC(Br)CBr (stereo not drawn) [Beispiel 5, 1,2-Dibrompropan] |  |  |  |  |  | 5 |
